Measurements as given in patent US20250115598A1 (Anaxis Pharma Pty Ltd, priority 2021, published 2025).

Columns and labels:
human RIPK1 = human RIPK1 (Homo sapiens (Human), UniProt Q13546); experiment: KINOMEscan binding assay, human RIPK1; details: Table 21
Summary of the method: (§1)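 In this assay, compounds displace DNA- or phage-tagged kinase from an immobilized ligand, and eluted kinase is quantified by qPCR.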

human MLKL (full length) = human MLKL (full length) (Homo sapiens (Human), UniProt Q8NB16); experiment: KINOMEscan binding assay, human MLKL (full length); details: KINOMEscan, Table 21; read-out: Human MLKL (full-length) (KD)
Summary of the method: as §1

human RIPK3 = human RIPK3 (Homo sapiens (Human), UniProt Q9Y572); experiment: KINOMEscan binding assay, human RIPK3; details: Table 21
Summary of the method: as §1

human RIPK3, sequence (Q9Y572 whole entry): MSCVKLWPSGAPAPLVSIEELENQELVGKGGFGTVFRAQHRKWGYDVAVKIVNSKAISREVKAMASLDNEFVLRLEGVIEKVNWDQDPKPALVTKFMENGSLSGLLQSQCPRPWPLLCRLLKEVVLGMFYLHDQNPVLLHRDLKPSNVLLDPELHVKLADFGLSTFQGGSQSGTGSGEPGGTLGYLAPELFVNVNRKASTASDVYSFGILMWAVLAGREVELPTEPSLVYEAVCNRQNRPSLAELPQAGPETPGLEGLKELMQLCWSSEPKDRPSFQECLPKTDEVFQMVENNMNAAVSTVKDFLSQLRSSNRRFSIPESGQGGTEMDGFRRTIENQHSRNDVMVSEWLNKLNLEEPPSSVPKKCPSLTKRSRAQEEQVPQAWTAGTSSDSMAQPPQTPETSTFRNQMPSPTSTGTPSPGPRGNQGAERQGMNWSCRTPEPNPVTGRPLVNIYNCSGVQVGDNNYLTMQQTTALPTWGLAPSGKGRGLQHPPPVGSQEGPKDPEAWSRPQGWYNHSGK
human RIPK1, sequence (Q13546 whole entry): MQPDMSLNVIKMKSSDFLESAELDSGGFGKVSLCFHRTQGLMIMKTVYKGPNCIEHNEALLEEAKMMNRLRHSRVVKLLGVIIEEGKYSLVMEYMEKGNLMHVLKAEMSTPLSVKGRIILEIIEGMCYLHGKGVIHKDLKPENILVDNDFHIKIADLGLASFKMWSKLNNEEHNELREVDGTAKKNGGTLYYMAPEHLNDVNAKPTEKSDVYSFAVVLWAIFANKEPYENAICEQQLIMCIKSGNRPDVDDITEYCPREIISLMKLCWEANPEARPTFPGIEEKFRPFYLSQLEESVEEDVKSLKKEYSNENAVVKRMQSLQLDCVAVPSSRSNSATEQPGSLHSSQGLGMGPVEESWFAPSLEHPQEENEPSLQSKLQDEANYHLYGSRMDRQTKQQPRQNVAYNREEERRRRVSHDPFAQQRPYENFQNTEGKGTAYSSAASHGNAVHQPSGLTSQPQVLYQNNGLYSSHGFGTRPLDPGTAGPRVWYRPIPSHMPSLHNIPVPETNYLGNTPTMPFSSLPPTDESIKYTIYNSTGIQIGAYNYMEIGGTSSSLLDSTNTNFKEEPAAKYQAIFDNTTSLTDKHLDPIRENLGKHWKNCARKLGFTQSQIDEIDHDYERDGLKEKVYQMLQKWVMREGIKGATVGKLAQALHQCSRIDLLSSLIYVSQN
human MLKL (full length), sequence (Q8NB16 whole entry): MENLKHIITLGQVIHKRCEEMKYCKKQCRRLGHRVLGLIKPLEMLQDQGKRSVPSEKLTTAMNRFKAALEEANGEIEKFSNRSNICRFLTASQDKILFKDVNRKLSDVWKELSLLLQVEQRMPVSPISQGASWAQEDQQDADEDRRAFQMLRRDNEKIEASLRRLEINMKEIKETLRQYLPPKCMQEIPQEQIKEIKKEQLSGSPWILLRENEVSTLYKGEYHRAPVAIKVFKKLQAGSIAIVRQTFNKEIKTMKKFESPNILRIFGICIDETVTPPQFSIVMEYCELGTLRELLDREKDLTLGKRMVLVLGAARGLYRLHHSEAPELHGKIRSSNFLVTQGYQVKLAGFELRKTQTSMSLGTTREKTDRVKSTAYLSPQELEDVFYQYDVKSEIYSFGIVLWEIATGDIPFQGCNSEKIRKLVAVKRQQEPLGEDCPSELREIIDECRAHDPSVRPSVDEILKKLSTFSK

Row | SMILES | Kd (human RIPK1) | Kd (human MLKL (full length)) | Kd (human RIPK3)
1 | C[C@H](Oc1cc(-c2nn(C)c3c(-c4cnn(C(C)(C)CO)c4)cnc(N)c23)ccc1NS(=O)(=O)C(F)F)c1ccc(F)cc1 [Compound 97, (S)-N-(4-(4-amino-7-(1-(1-hydroxy-2-methylpropan-2-yl)-1H-pyrazol-4-yl)-1-methyl-1H-pyrazolo[4,3-c]pyridin-3-yl)-2-(1-(4-fluorophenyl)ethoxy)phenyl)-1,1-difluoromethanesulfonamide] | > 10 µM | < 0.001 µM | > 10 µM
2 | C[C@H](Oc1cc(-c2nn(C)c3c(-c4cnn(C5(CC#N)COC5)c4)cnc(N)c23)ccc1NS(=O)(=O)C(F)F)c1ccc(F)cc1 [Compound 98, (S)-N-(4-(4-amino-7-(1-(3-(cyanomethyl)oxetan-3-yl)-1H-pyrazol-4-yl)-1-methyl-1H-pyrazolo[4,3-c]pyridin-3-yl)-2-(1-(4-fluorophenyl)ethoxy)phenyl)-1,1-difluoromethanesulfonamide] | > 10 µM | < 0.001 µM | > 10 µM
3 | C[C@H](Oc1cc(-c2nn(C)c3c(-c4cnn(CCN(C)C)c4)cnc(N)c23)ccc1NS(=O)(=O)C(F)F)c1ccc(F)cc1 [Compound 100, (S)-N-(4-(4-amino-7-(1-(2-(dimethylamino)ethyl)-1H-pyrazol-4-yl)-1-methyl-1H-pyrazolo[4,3-c]pyridin-3-yl)-2-(1-(4-fluorophenyl)ethoxy)phenyl)-1,1-difluoromethanesulfonamide] | > 10 µM | < 0.001 µM | > 10 µM
4 | CC(C)N(C)CC(C)n1cc(-c2cnc(N)c3c(-c4ccc(NS(=O)(=O)C(F)F)c(O[C@@H](C)c5ccc(F)cc5)c4)nn(C)c23)cn1 (stereo partly drawn) [Compound 101, N-(4-(4-amino-7-(1-(1-(isopropyl(methyl)amino)propan-2-yl)-1H-pyrazol-4-yl)-1-methyl-1H-pyrazolo[4,3-c]pyridin-3-yl)-2-((S)-1-(4-fluorophenyl)ethoxy)phenyl)-1,1-difluoromethanesulfonamide] | > 10 µM | < 0.001 µM | > 10 µM
5 | [2H]C([2H])([2H])N1CCC(n2cc(-c3cnc(N)c4c(-c5ccc(NS(=O)(=O)C(F)F)c(O[C@@H](C)c6ccc(F)cc6)c5)nn(C)c34)cn2)CC1 [Compound 103, (S)-N-(4-(4-amino-1-methyl-7-(1-(1-(methyl-d3)piperidin-4-yl)-1H-pyrazol-4-yl)-1H-pyrazolo[4,3-c]pyridin-3-yl)-2-(1-(4-fluorophenyl)ethoxy)phenyl)-1,1-difluoromethanesulfonamide] | > 10 µM | < 0.001 µM | > 10 µM
6 | C[C@H](Oc1cc(-c2nn(C)c3c(-c4cnc(N5CCN(C)CC5)nc4)cnc(N)c23)ccc1NS(=O)(=O)C(F)F)c1ccc(F)cc1 [Compound 105, (S)-N-(4-(4-amino-1-methyl-7-(2-(4-methylpiperazin-1-yl)pyrimidin-5-yl)-1H-pyrazolo[4,3-c]pyridin-3-yl)-2-(1-(4-fluorophenyl)ethoxy)phenyl)-1,1-difluoromethanesulfonamide] | > 10 µM | < 0.001 µM | > 10 µM
7 | C[C@H](Oc1cc(-c2nn(C)c3c(-c4cnc(N5CCOCC5)nc4)cnc(N)c23)ccc1NS(=O)(=O)C(F)F)c1ccc(F)cc1 [Compound 110, (S)-N-(4-(4-amino-1-methyl-7-(2-morpholinopyrimidin-5-yl)-1H-pyrazolo[4,3-c]pyridin-3-yl)-2-(1-(4-fluorophenyl)ethoxy)phenyl)-1,1-difluoromethanesulfonamide] | > 10 µM | < 0.001 µM | > 10 µM
8 | C[C@@H](Oc1cc(-c2nn(C)c3c(-c4cnn(C5CCOCC5)c4)cnc(N)c23)ccc1NS(=O)(=O)C(F)F)c1ccc(F)cc1 [Compound 121, (R)-N-(4-(4-amino-1-methyl-7-(1-(tetrahydro-2H-pyran-4-yl)-1H-pyrazol-4-yl)-1H-pyrazolo[4,3-c]pyridin-3-yl)-2-(1-(4-fluorophenyl)ethoxy)phenyl)-1,1-difluoromethane-sulfonamide] | > 10 µM | < 0.001 µM | > 10 µM
9 | C[C@H](Oc1cc(-c2nn(C)c3c(-c4cnn(C5CCOCC5)c4)cnc(N)c23)ccc1NS(=O)(=O)C(F)F)c1cccc(Cl)c1 [Compound 122] | > 10 µM | < 0.001 µM | > 10 µM
10 | C[C@H](Oc1cc(-c2nn(C)c3c(-c4cnn(C(F)F)c4)cnc(N)c23)ccc1NS(=O)(=O)C(F)F)c1ccc(F)cc1 [Compound 123, (S)-N-(4-(4-amino-7-(1-(difluoromethyl)-1H-pyrazol-4-yl)-1-methyl-1H-pyrazolo[4,3-c]pyridin-3-yl)-2-(1-(4-fluorophenyl)ethoxy)phenyl)-1,1-difluoromethanesulfonamide] | > 10 µM | < 0.001 µM | > 10 µM
11 | Cn1nc(-c2ccc(NS(=O)(=O)C(F)F)c(OCc3cccc(Cl)c3)c2)c2c(N)ncc(-c3cnn(C4CCOCC4)c3)c21 [Compound 130, N-(4-(4-amino-1-methyl-7-(1-(tetrahydro-2H-pyran-4-yl)-1H-pyrazol-4-yl)-1H-pyrazolo[4,3-c]pyridin-3-yl)-2-((3-chlorobenzyl)oxy)phenyl)-1,1-difluoromethane-sulfonamide] | > 10 µM | < 0.001 µM | > 10 µM
12 | Cn1nc(-c2ccc(NS(=O)(=O)C(F)F)c(OCc3ccc(Cl)c(F)c3)c2)c2c(N)ncc(-c3cnn(C4CCOCC4)c3)c21 [Compound 132, N-(4-(4-amino-1-methyl-7-(1-(tetrahydro-2H-pyran-4-yl)-1H-pyrazol-4-yl)-1H-pyrazolo[4,3-c]pyridin-3-yl)-2-((4-chloro-3-fluoro-benzyl)oxy)phenyl)-1,1-difluoromethane-sulfonamide] | > 10 µM | < 0.001 µM | > 10 µM
13 | Cn1nc(-c2ccc(NS(=O)(=O)C(F)F)cc2OCc2cccc(F)c2)c2c(N)ncc(-c3cnn(C4CCOCC4)c3)c21 [Compound 135, N-(4-(4-amino-1-methyl-7-(1-(tetrahydro-2H-pyran-4-yl)-1H-pyrazol-4-yl)-1H-pyrazolo[4,3-c]pyridin-3-yl)-3-((3-fluorobenzyl)oxy)phenyl)-1,1-difluoro-methanesulfonamide] | > 10 µM | < 0.001 µM | > 10 µM

Next, values leading:

Row | Kd (human RIPK1) | Kd (human MLKL (full length)) | Kd (human RIPK3) | SMILES
14 | > 10 µM | < 0.001 µM | > 10 µM | CC(n1cc(-c2cnc(N)c3c(-c4ccc(NS(=O)(=O)C(F)F)c(O[C@@H](C)c5ccc(F)cc5)c4)nn(C)c23)cn1)C(F)(F)F (stereo partly drawn) [Compound 142, N-(4-(4-amino-1-methyl-7-(1-(1,1,1-trifluoropropan-2-yl)-1H-pyrazol-4-yl)-1H-pyrazolo[4,3-c]pyridin-3-yl)-2-((S)-1-(4-fluorophenyl)ethoxy)phenyl)-1,1-difluoromethanesulfonamide]
15 | > 10 µM | < 0.001 µM | > 10 µM | Cn1nc(-c2ccc(NS(=O)(=O)C(F)F)c(OCc3nccs3)c2)c2c(N)ncc(-c3cnn(C4CCOCC4)c3)c21 [Compound 143, N-(4-(4-amino-1-methyl-7-(1-(tetrahydro-2H-pyran-4-yl)-1H-pyrazol-4-yl)-1H-pyrazolo[4,3-c]pyridin-3-yl)-2-(thiazol-2-yl-methoxy)phenyl)-1,1-difluoromethane-sulfonamide]
16 | > 10 µM | < 0.001 µM | > 10 µM | CC(C)Oc1cc(-c2nn(C)c3c(-c4cnn(C5CCOCC5)c4)cnc(N)c23)ccc1NS(=O)(=O)C(F)F [Compound 144, N-(4-(4-amino-1-methyl-7-(1-(tetrahydro-2H-pyran-4-yl)-1H-pyrazol-4-yl)-1H-pyrazolo[4,3-c]pyridin-3-yl)-2-isopropoxy-phenyl)-1,1-difluoromethane-sulfonamide]
17 | > 10 µM | < 0.001 µM | > 10 µM | Cn1nc(-c2ccc(NS(=O)(=O)C(F)F)c(OCC3CCCCC3)c2)c2c(N)ncc(-c3cnn(C4CCOCC4)c3)c21 [Compound 150, N-(4-(4-amino-1-methyl-7-(1-(tetrahydro-2H-pyran-4-yl)-1H-pyrazol-4-yl)-1H-pyrazolo[4,3-c]pyridin-3-yl)-2-(cyclohexyl-methoxy)phenyl)-1,1-difluoromethane-sulfonamide]
18 | > 10 µM | < 0.001 µM | > 10 µM | Cn1nc(-c2ccc(NS(=O)(=O)C(F)F)c(OCc3ncco3)c2)c2c(N)ncc(-c3cnn(C4CCOCC4)c3)c21 [Compound 151, N-(4-(4-amino-1-methyl-7-(1-(tetrahydro-2H-pyran-4-yl)-1H-pyrazol-4-yl)-1H-pyrazolo[4,3-c]pyridin-3-yl)-2-(oxazol-2-yl-methoxy)phenyl)-1,1-difluoromethane-sulfonamide]
19 | > 10 µM | < 0.001 µM | > 10 µM | C[C@H](Oc1cc(-c2nn(C)c3c(-c4cnn(C5CCN(C)C(C)(C)C5)c4)cnc(N)c23)ccc1NS(=O)(=O)C(F)F)c1ccc(Cl)cc1 (stereo partly drawn) [Compound 159, N-(4-(4-amino-1-methyl-7-(1-(1,2,2-trimethylpiperidin-4-yl)-1H-pyrazol-4-yl)-1H-pyrazolo[4,3-c]pyridin-3-yl)-2-((S)-1-(4-chloro-phenyl)ethoxy)phenyl)-1,1-difluoro-methanesulfonamide]
20 | > 10 µM | < 0.001 µM | > 10 µM | C[C@H](Oc1cc(-c2nn(C)c3c(-c4ccc5[nH]c(=O)n(C)c5c4)cnc(N)c23)ccc1NS(=O)(=O)C(F)F)c1ccc(F)cc1 [Compound 160, (S)-N-(4-(4-amino-1-methyl-7-(3-methyl-2-oxo-2,3-dihydro-1H-benzo[d]imidazol-5-yl)-1H-pyrazolo[4,3-c]pyridin-3-yl)-2-(1-(4-fluorophenyl)ethoxy)phenyl)-1,1-difluoromethanesulfonamide]
